Experimental data published in patent US10233188B2, “CDK2/4/6 inhibitors” (priority 2016, dated 2019).

Experiments:
CDK2/Cyclin E1 = CDK2/Cyclin E1 (Homo sapiens (Human), UniProt P24941); assay: biochemical; details: CDK2_Ki (nM), phosphorylated CDK2/Cyclin E1, 150 μM ATP, Morrison tight-binding fit
Procedure: The assay was initiated with the addition of ATP, following a fifteen minutes pre-incubation of enzyme and inhibitor at room temperature in the reaction mixture. The reaction was stopped after 45 minutes at room temperature by the addition of 50 μL of 80 mM EDTA, pH 7.5.

CDK6/Cyclin D1 = CDK6/Cyclin D1 (Homo sapiens (Human), UniProt Q00534); assay: biochemical; details: CDK6_Ki (nM), non-phosphorylated CDK6/Cyclin D1, 2 mM ATP, Morrison fit
Sequence of CDK6/Cyclin D1 (Q00534 whole entry): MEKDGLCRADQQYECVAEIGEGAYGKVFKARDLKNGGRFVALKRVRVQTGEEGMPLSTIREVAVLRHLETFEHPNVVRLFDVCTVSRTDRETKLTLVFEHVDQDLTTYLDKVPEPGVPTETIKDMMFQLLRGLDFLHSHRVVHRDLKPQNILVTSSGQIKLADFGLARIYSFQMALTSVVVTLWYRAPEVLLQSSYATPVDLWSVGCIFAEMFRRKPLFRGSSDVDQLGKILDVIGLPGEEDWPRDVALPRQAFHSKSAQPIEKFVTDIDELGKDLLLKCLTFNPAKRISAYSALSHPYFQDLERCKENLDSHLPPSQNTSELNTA
Sequence of CDK6/Cyclin D1 (P24385 whole entry partner): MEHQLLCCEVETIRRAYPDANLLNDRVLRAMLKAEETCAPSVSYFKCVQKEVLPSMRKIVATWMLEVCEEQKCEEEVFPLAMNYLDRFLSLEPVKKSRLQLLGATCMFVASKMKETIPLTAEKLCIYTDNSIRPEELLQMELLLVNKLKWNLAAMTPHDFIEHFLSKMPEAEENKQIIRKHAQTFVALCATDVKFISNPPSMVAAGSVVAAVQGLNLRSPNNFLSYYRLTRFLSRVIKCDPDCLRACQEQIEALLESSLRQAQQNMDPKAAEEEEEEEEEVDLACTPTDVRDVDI

SMILES	Ki (CDK2/Cyclin E1)	Ki (CDK6/Cyclin D1)
CS(=O)(=O)CS(=O)(=O)N1CCC(Nc2ncc3ccc(=O)n(C4CCCC4)c3n2)CC1 [Example 18, 8-cyclopentyl-2-[(1-{[(methylsulfonyl)methyl]sulfonyl}piperidin-4-yl)amino]pyrido[2,3-d] pyrimidin-7(8H)-one]	1.19 nM	2.44 nM
C[C@@]1(O)CCC[C@H]1n1c(=O)c(CC(N)=O)cc2cnc(NC3CCN(S(C)(=O)=O)CC3)nc21 (single isomer, unassigned) [Example 179, (−)-2-(8-[(1R*,2R*)-2-hydroxy-2-methylcyclopentyl]-2-{[1-(methylsulfonyl)piperidin-4-yl]amino}-7-oxo-7,8-dihydropyrido[2,3-d]pyrimidin-6-yl)acetamide]	0.38 nM	2.18 nM
C[C@@]1(O)CCC[C@H]1n1c(=O)ccc2cnc(NC3CCN(S(=O)(=O)CS(C)(=O)=O)CC3)nc21 [Example 190, 8-[(1R,2R)-2-hydroxy-2-methylcyclopentyl]-2-[(1-{[(methylsulfonyl)methyl]sulfonyl}piperidin-4-yl)amino]pyrido[2,3-d] pyrimidin-7(8H)-one]	0.51 nM	184 nM
Cc1cc2cnc(NC3CCN(S(=O)(=O)C(F)(F)F)CC3)nc2n([C@H]2CCC[C@]2(C)O)c1=O (single isomer, unassigned) [Example 182, (+)-8-[(1R*,2R*)-2-hydroxy-2-methylcyclopentyl]-6-methyl-2-({1-[(trifluoromethyl)sulfonyl]piperidin-4-yl}amino)pyrido[2,3-d]pyrimidin-7(8H)-one]	12.6 nM	9.5 nM
C[C@@H]1[C@@H](O)CC[C@@H]1n1c(=O)ccc2cnc(NC3CCN(S(C)(=O)=O)CC3)nc21 (single isomer, unassigned) [Example 209, (+)-8-[(1R*,2R*,3R*)-3-hydroxy-2-methylcyclopentyl]-2-{[1-(methylsulfonyl)piperidin-4-yl]amino}pyrido[2,3-d]pyrimidin-7(8H)-one]	0.5 nM	0.75 nM
C[C@]1(O)CCC[C@@H]1n1c(=O)c(CCO)cc2cnc(NC3CCN(S(C)(=O)=O)CC3)nc21 (single isomer, unassigned) [Example 123, (+)-6-(2-hydroxyethyl)-8-[(1R*,2R*)-2-hydroxy-2-methylcyclopentyl]-2-{[1-(methylsulfonyl)piperidin-4-yl]amino}pyrido[2,3-d]pyrimidin-7(8H)-one]	0.76 nM	6.14 nM
C[C@@]1(O)CCC[C@H]1n1c(=O)ccc2cnc(NC3CCN(S(=O)(=O)c4nccs4)CC3)nc21 (single isomer, unassigned) [Example 78, (−)-8-[(1R*,2R*)-2-hydroxy-2-methylcyclopentyl]-2-{[1-(1,3-thiazol-2-ylsulfonyl)piperidin-4-yl]amino}pyrido[2,3-d]pyrimidin-7(8H)-one]	0.25 nM	1.63 nM
CNS(=O)(=O)N1CCC(Nc2ncc3cc(F)c(=O)n([C@H]4CCC[C@]4(C)O)c3n2)CC1 (single isomer, unassigned) [Example 125, (+)-4-({6-fluoro-8-[(1R*,2R*)-2-hydroxy-2-methylcyclopentyl]-7-oxo-7,8-dihydropyrido[2,3-d]pyrimidin-2-yl}amino)-N-methylpiperidine-1-sulfonamide]	6.21 nM	36.6 nM
CC(F)(F)CNS(=O)(=O)N1CCC(Nc2ncc3ccc(=O)n([C@@H]4CCC[C@@]4(C)O)c3n2)CC1 (single isomer, unassigned) [Example 66, (−)-N-(2,2-difluoropropyl)-4-({8-[(1R*,2R*)-2-hydroxy-2-methylcyclopentyl]-7-oxo-7,8-dihydropyrido[2,3-d]pyrimidin-2-yl}amino)piperidine-1-sulfonamide]	0.21 nM	2.47 nM
Cc1cc2cnc(NC3CCN(S(=O)(=O)C4CCS(=O)(=O)C4)CC3)nc2n([C@H]2CCC[C@]2(C)O)c1=O (single isomer, unassigned; isomer b) [Example 107, (+)-2-[(1-{[(3ξ)-1,1-dioxidotetrahydrothiophen-3-yl]sulfonyl}piperidin-4-yl)amino]-8-[(1R*,2R*)-2-hydroxy-2-methylcyclopentyl]-6-methylpyrido[2,3-d]pyrimidin-7(8H)-one-Isomer B]	9.91 nM	184 nM
Cc1cc2cnc(NC3CCN(S(C)(=O)=O)CC3)nc2n(C2CCCCC(O)C2)c1=O (single isomer, unassigned; isomer c) [Example 225, 8-(3-hydroxycycloheptyl)-6-methyl-2-{[1-(methylsulfonyl)piperidin-4-yl]amino}pyrido[2,3-d]pyrimidin-7(8H)-one-Isomer C]	4.63 nM	3.13 nM
C[C@]1(O)CCC[C@@H]1n1c(=O)c(Cl)cc2cnc(NC3CCN(S(N)(=O)=O)CC3)nc21 (single isomer, unassigned) [Example 129, (+)-4-({6-chloro-8-[(1R*,2R*)-2-hydroxy-2-methylcyclopentyl]-7-oxo-7,8-dihydropyrido[2,3-d]pyrimidin-2-yl}amino)piperidine-1-sulfonamide]	1.47 nM	5.73 nM
COC(C)(C)CNS(=O)(=O)N1CCC(Nc2ncc3ccc(=O)n([C@@H]4CCC[C@@]4(C)O)c3n2)CC1 (single isomer, unassigned) [Example 60, (−)-4-({8-[(1R*,2R*)-2-hydroxy-2-methylcyclopentyl]-7-oxo-7,8-dihydropyrido[2,3-d]pyrimidin-2-yl}amino)-N-(2-methoxy-2-methylpropyl)piperidine-1-sulfonamide]	0.48 nM	3.18 nM
Cc1cc2cnc(NC3CCN(S(=O)(=O)C4CC4)CC3)nc2n([C@@H]2CCC[C@@]2(C)O)c1=O (single isomer, unassigned) [Example 112, (−)-2-{[1-(cyclopropylsulfonyl)piperidin-4-yl]amino}-8-[(1R*,2R*)-2-hydroxy-2-methylcyclopentyl]-6-methylpyrido[2,3-d]pyrimidin-7(8H)-one]	0.12 nM	1.24 nM
C[C@@H]1[C@H](O)CC[C@H]1n1c(=O)c(C(F)F)cc2cnc(NC3CCN(S(C)(=O)=O)CC3)nc21 (single isomer, unassigned) [Example 204, (−)-6-(difluoromethyl)-8-[(1R*,2S*,3R*)-3-hydroxy-2-methylcyclopentyl]-2-{[1-(methylsulfonyl)piperidin-4-yl]amino}pyrido[2,3-d]pyrimidin-7(8H)-one]	0.51 nM	0.18 nM
CS(=O)(=O)N1CCC(Nc2ncc3cc(CC(F)F)c(=O)n([C@H]4CC[C@H](O)C4)c3n2)CC1 (single isomer, unassigned) [Example 171, (+)-6-(2,2-difluoroethyl)-8-[(1R*,3R*)-3-hydroxycyclopentyl]-2-{[1-(methylsulfonyl)piperidin-4-yl]amino}pyrido[2,3-d]pyrimidin-7(8H)-one]	1.73 nM	1.55 nM

Continued, values first:

Ki (CDK2/Cyclin E1)	Ki (CDK6/Cyclin D1)	SMILES
2.37 nM	0.94 nM	CS(=O)(=O)N1CCC(Nc2ncc3cc(C(F)F)c(=O)n([C@@H]4CC[C@@H](O)C4)c3n2)CC1 (single isomer, unassigned) [Example 133, (−)-6-(difluoromethyl)-8-[(1R*,3R*)-3-hydroxycyclopentyl]-2-{[1-(methylsulfonyl)piperidin-4-yl]amino}pyrido[2,3-d]pyrimidin-7(8H)-one]
4.48 nM	22.2 nM	C[C@]1(O)CCC[C@@H]1n1c(=O)ccc2cnc(NC3CCN(S(=O)(=O)NC4CCOCC4)CC3)nc21 (single isomer, unassigned) [Example 69, (+)-4-({8-[(1R*,2R*)-2-hydroxy-2-methylcyclopentyl]-7-oxo-7,8-dihydropyrido[2,3-d]pyrimidin-2-yl}amino)-N-(tetrahydro-2H-pyran-4-yl)piperidine-1-sulfonamide]
5.49 nM	4.68 nM	CC[C@@]1(O)CCC[C@H]1n1c(=O)c(Cl)cc2cnc(NC3CCN(S(C)(=O)=O)CC3)nc21 (single isomer, unassigned) [Example 195, (−)-6-chloro-8-[(1R*,2R*)-2-ethyl-2-hydroxycyclopentyl]-2-{[1-(methylsulfonyl)piperidin-4-yl]amino}pyrido[2,3-d]pyrimidin-7(8H)-one]
1.2 nM	1.98 nM	CC(C)(O)CS(=O)(=O)N1CCC(Nc2ncc3ccc(=O)n([C@@H]4CCC[C@@]4(C)O)c3n2)CC1 [Example 189, 8-[(1R,2R)-2-hydroxy-2-methylcyclopentyl]-2-({1-[(2-hydroxy-2-methylpropyl)sulfonyl]piperidin-4-yl}amino)pyrido[2,3-d]pyrimidin-7(8H)-one]
19.2 nM	7.82 nM	CS(=O)(=O)N1CCC(Nc2ncc3cc(Cl)c(=O)n([C@H]4CCC[C@H](O)C4)c3n2)CC1 (single isomer, unassigned) [Example 35, (−)-6-chloro-8-[(1R*,3R*)-3-hydroxycyclohexyl]-2-{[1-(methylsulfonyl)piperidin-4-yl]amino}pyrido[2,3-d]pyrimidin-7(8H)-one]
1.34 nM	0.42 nM	CS(=O)(=O)N1CCC(Nc2ncc3cc(Cl)c(=O)n([C@@H]4CCC[C@@H](O)C4)c3n2)CC1 (single isomer, unassigned) [Example 34, (+)-6-chloro-8-[(1R*,3R*)-3-hydroxycyclohexyl]-2-{[1-(methylsulfonyl)piperidin-4-yl]amino}pyrido[2,3-d]pyrimidin-7(8H)-one]
2.87 nM	4.15 nM	Cc1cc2cnc(NC3CCN(S(=O)(=O)CC(F)(F)F)CC3)nc2n([C@H]2CCC[C@]2(C)O)c1=O (single isomer, unassigned) [Example 119, (+)-8-[(1R*,2R*)-2-hydroxy-2-methylcyclopentyl]-6-methyl-2-({1-[(2,2,2-trifluoroethyl)sulfonyl]piperidin-4-yl}amino)pyrido[2,3-d]pyrimidin-7(8H)-one]
310 nM	6.58 nM	Cc1cc2cnc(NC3CCN(S(C)(=O)=O)CC3)nc2n(C2CCCCC(O)C2)c1=O (single isomer, unassigned; isomer d) [Example 226, 8-(3-hydroxycycloheptyl)-6-methyl-2-{[1-(methylsulfonyl)piperidin-4-yl]amino}pyrido[2,3-d]pyrimidin-7(8H)-one-Isomer D]
